From patent US20230150974A1 (Foghorn Therapeutics Inc., priority 2020, published 2023) come the findings set out here.

One experiment has as its target T1, HiBit-BRG1 (Homo sapiens, UniProt P51532).
T1 construct: expressed in transfected cells
As to the kind of experiment: HiBit-BRG1 cell-based degradation assay (Nano-Glo HiBiT Lytic Detection). Conditions: HeLa cells expressing HiBit-BRG1 and LgBit, 24 h; for DC50: read-out: BRG1 HiBit Degradation IC50; for Dmax: read-out: BRG1 HiBit Degradation Maximum (%). A digest of the protocol: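 HeLa cells stably expressing HiBiT-BRG1 plus LgBit, 5000/well, treated 24 h, then lysed with Nano-Glo HiBiT lytic reagent and luminescence read. % degradation normalised between DMSO (high control) and 2 μM reference BRM/BRG1 degrader (low control).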
On the technique in general: HiBiT is a short tag that completes a luciferase, so light tracks the accessible tagged protein.

Another experiment concerns the target T2, HiBiT-BRM (Homo sapiens, UniProt P51531).
T2 construct: expressed in transfected cells
As to the kind of experiment: HiBiT-BRM cell-based degradation assay (Nano-Glo HiBiT Lytic Detection). The note with it: HeLa cells expressing HiBiT-BRM, 24 h; for DC50: read-out: BRM HiBit Degradation IC50. The method in brief: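 Luminescence from HiBiT–LgBiT complementation in lysates of a stable HiBiT-BRM HeLa line measured after 24 h compound exposure. Degradation expressed as percent relative to DMSO-treated cells and cells given 2 μM of a known BRM/BRG1 degrader.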

T2 sequence (P51531 whole entry): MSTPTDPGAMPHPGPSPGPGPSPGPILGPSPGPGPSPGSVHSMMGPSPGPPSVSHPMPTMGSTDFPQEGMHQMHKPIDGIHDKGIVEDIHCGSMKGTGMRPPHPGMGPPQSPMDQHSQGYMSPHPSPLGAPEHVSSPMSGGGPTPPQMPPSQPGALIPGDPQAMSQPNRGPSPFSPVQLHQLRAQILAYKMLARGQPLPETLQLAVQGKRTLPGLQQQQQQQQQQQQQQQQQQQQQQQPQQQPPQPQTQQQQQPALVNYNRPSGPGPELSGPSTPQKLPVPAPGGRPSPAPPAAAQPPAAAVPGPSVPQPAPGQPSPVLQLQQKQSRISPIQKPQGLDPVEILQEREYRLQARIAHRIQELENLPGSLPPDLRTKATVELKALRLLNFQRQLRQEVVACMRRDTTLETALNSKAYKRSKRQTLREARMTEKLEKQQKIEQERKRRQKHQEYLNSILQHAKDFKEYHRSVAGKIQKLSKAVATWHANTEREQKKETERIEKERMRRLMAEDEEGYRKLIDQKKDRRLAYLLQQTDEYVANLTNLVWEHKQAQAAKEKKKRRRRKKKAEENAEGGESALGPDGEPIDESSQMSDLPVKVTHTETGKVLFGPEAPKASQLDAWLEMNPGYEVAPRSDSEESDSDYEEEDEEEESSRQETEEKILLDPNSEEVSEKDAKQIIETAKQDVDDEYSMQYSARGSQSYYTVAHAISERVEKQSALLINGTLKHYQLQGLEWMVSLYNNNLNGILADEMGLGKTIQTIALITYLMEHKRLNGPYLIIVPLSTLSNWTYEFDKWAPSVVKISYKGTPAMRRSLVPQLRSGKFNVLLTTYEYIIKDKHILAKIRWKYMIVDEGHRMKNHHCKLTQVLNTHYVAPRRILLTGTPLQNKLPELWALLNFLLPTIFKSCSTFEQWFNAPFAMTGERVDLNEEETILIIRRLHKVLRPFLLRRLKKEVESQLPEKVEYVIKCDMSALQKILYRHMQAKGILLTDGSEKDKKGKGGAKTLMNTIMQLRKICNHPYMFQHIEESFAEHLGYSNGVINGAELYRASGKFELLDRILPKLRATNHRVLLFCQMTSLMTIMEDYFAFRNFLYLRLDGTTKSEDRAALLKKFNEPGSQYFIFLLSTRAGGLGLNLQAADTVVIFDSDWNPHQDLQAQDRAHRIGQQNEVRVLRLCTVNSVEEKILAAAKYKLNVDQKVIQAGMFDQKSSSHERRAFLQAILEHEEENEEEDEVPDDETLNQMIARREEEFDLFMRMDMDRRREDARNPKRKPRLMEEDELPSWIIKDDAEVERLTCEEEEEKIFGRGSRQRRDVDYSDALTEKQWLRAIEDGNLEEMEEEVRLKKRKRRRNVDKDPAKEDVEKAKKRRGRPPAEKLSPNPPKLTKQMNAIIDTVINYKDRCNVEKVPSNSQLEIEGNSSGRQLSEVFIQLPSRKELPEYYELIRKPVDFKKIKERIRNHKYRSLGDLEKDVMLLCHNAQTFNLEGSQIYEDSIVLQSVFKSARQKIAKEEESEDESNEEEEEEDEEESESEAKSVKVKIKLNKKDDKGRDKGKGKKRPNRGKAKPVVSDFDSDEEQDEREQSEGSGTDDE
T1 sequence (P51532 whole entry): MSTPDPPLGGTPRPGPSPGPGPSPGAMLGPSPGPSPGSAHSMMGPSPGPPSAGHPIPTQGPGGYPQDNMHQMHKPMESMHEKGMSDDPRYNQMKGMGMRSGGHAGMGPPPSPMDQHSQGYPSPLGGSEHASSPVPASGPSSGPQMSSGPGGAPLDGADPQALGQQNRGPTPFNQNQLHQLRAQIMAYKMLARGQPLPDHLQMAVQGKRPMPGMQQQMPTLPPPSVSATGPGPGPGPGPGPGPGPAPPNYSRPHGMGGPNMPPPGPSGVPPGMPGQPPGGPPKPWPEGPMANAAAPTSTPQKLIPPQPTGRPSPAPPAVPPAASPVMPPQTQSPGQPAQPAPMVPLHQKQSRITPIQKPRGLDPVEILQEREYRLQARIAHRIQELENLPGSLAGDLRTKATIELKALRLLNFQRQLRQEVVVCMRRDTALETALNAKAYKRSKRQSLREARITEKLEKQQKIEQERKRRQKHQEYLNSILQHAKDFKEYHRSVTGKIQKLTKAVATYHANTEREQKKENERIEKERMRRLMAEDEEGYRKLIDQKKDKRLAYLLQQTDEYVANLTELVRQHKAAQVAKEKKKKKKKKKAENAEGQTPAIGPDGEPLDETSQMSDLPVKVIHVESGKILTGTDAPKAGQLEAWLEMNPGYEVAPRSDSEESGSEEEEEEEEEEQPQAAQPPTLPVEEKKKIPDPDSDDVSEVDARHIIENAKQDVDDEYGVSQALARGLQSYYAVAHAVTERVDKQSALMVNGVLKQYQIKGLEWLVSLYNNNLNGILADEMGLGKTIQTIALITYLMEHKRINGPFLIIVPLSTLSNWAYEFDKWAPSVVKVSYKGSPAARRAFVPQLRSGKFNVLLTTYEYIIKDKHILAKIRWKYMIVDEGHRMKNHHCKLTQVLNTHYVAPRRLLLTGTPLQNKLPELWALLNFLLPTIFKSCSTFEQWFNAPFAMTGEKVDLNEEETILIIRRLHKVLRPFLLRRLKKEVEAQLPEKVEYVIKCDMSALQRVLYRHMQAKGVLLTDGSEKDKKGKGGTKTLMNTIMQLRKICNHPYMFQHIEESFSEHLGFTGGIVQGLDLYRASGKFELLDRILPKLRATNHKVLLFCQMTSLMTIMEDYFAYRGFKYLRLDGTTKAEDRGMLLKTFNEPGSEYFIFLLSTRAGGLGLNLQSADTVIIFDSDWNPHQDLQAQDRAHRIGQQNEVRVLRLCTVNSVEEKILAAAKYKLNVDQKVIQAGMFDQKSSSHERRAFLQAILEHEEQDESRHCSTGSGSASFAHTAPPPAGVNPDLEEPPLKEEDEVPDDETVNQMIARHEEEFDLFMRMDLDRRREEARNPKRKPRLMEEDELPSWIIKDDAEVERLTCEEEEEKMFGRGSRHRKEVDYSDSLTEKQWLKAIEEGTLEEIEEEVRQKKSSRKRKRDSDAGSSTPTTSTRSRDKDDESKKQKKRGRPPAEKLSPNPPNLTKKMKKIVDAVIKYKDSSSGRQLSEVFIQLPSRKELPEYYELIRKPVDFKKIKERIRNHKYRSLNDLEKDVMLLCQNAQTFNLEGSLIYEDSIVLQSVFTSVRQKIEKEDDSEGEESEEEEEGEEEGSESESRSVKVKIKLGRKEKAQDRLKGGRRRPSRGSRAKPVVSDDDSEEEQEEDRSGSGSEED

For `Cc1ncsc1-c1ccc(CNC(=O)[C@@H]2C[C@@H](O)CN2C(=O)[C@@H](NC(=O)CCCCCCCNC(=O)CN2CCN(c3cc(-c4ccccc4O)nnc3N)CC2)C(C)(C)C)cc1` [Compound 94, (2S,4R)-1-((S)-2-(8-(2-(4-(3-amino-6-(2-hydroxyphenyl)pyridazin-4-yl)piperazin-1-yl)acetamido)octanamido)-3,3-dimethylbutanoyl)-4-hydroxy-N-(4-(4-methylthiazol-5-yl)benzyl)pyrrolidine-2-carboxamide], at HiBit-BRG1, the DC50 was > 1000 nM and the Dmax is < 50%. At HiBiT-BRM, the “BRM HiBit Degradation Maximum (%)” value is “A (“A” indicates maximum degradation ≥75%)” and the DC50 was > 1000 nM.
Consider `Cc1ncsc1-c1ccc(CNC(=O)[C@@H]2C[C@@H](O)CN2C(=O)[C@@H](NC(=O)CCN2CC3CN(C(=O)c4ccc(CCOc5cc(-c6ccccc6O)nnc5N)cc4)CC32)C(C)(C)C)cc1` (stereo partly drawn) [Compound 231, (2S,4R)-1-((2S)-2-(3-(3-(4-(2-((3-amino-6-(2-hydroxyphenyl)pyridazin-4-yl)oxy)ethyl)benzoyl)-3,6-diazabicyclo[3.2.0]heptan-6-yl)propanamido)-3,3-dimethylbutanoyl)-4-hydroxy-N-(4-(4-methylthiazol-5-yl)benzyl)pyrrolidine-2-carboxamide], for which, on HiBit-BRG1, the DC50 was > 1000 nM and the Dmax was < 50%. Moreover, at HiBiT-BRM, the “BRM HiBit Degradation Maximum (%)” value was “C (“C” indicates maximum degradation <50%)” and the DC50 was > 1000 nM.
On to `Cc1ncsc1-c1ccc(CNC(=O)[C@@H]2C[C@@H](O)CN2C(=O)[C@@H](NC(=O)CCCCCCCCCC(=O)NCc2ccc(CCOc3cc(-c4ccccc4O)nnc3N)cc2)C(C)(C)C)cc1` [Compound 28, N′-[[4-(2-[[3-amino-6-(2-hydroxyphenyl)pyridazin-4-yl]oxy]ethyl)phenyl]methyl]-N-[(2S)-1-[(2S,4R)-4-hydroxy-2-([[4-(4-methyl-1,3-thiazol-5-yl)phenyl]methyl]carbamoyl)pyrrolidin-1-yl]-3,3-dimethyl-1-oxobutan-2-yl]undecanediamide], for which, on HiBit-BRG1, the DC50 is > 1000 nM and the Dmax is < 50%. For the same compound, on HiBiT-BRM, the “BRM HiBit Degradation Maximum (%)” value is “A (“A” indicates maximum degradation ≥75%)” and the DC50 was > 100 nM.
For `Cc1ncsc1-c1ccc([C@H](C)NC(=O)[C@@H]2C[C@@H](O)CN2C(=O)[C@@H](NC(=O)CCCCCCCCCCCCCCCC(=O)N(C)Cc2ccc(CCOc3cc(-c4ccccc4O)nnc3N)cc2)C(C)(C)C)cc1` [Compound 227, N1-(4-(2-((3-amino-6-(2-hydroxyphenyl)pyridazin-4-yl)oxy)ethyl)benzyl)-N17-((S)-1-((2S,4R)-4-hydroxy-2-(((S)-1-(4-(4-methylthiazol-5-yl)phenyl)ethyl)carbamoyl)pyrrolidin-1-yl)-3,3-dimethyl-1-oxobutan-2-yl)-N1-methylheptadecanediamide], in that order: > 100 nM, > 75%, “A (“A” indicates maximum degradation ≥75%)” and > 10 nM.
On to `Cc1ncsc1-c1ccc(CNC(=O)[C@@H]2C[C@@H](O)CN2C(=O)[C@@H](NC(=O)CCN2CCC(OC3CN(C(=O)c4ccc(CCOc5cc(-c6ccccc6O)nnc5N)cc4)C3)CC2)C(C)(C)C)cc1` [Compound 245, (2S,4R)-1-((S)-2-(3-(4-((1-(4-(2-((3-amino-6-(2-hydroxyphenyl)pyridazin-4-yl)oxy)ethyl)benzoyl)azetidin-3-yl)oxy)piperidin-1-yl)propanamido)-3,3-dimethylbutanoyl)-4-hydroxy-N-(4-(4-methylthiazol-5-yl)benzyl)pyrrolidine-2-carboxamide], for which, at HiBit-BRG1, the DC50 is > 1000 nM and the Dmax is < 50%. For the same compound, on HiBiT-BRM, the “BRM HiBit Degradation Maximum (%)” value was “B (“B” indicates maximum degradation ≥50%)” and the DC50 was > 1000 nM.
As for `Cc1ncsc1-c1ccc(CNC(=O)[C@@H]2C[C@@H](O)CN2C(=O)[C@@H](NC(=O)CCCOCCOCCNC(=O)c2ccc(CCOc3cc(-c4ccccc4O)nnc3N)cc2)C(C)(C)C)cc1` [Compound 24, (2S,4R)-1-[(2S)-2-[4-[2-(2-[[4-(2-[[3-amino-6-(2-hydroxyphenyl)pyridazin-4-yl]oxy]ethyl)phenyl]formamido]ethoxy)ethoxy]butanamido]-3,3-dimethylbutanoyl]-4-hydroxy-N-[[4-(4-methyl-1,3-thiazol-5-yl)phenyl]methyl]pyrrolidine-2-carboxamide], on HiBit-BRG1, the DC50 is > 1000 nM and the Dmax was < 50%. In addition, at HiBiT-BRM, the “BRM HiBit Degradation Maximum (%)” value is listed as “C (“C” indicates maximum degradation <50%)” and the DC50 is > 1000 nM.
For the compound `Nc1nnc(-c2ccccc2O)cc1N1CCN(CCNC(=O)CCOCCOCCNc2ccc3c(c2)C(=O)N(C2CCC(=O)NC2=O)C3=O)CC1` (centres unmarked) [Compound 91, N-(2-[4-[3-amino-6-(2-hydroxyphenyl)pyridazin-4-yl]piperazin-1-yl]ethyl)-3-[2-(2-[[2-(2,6-dioxopiperidin-3-yl)-1,3-dioxo-2,3-dihydro-1H-isoindol-5-yl]amino]ethoxy)ethoxy]propanamide], at HiBit-BRG1, the DC50 was > 1000 nM and the Dmax is < 50%. Moreover, on HiBiT-BRM, the “BRM HiBit Degradation Maximum (%)” value is reported as “C (“C” indicates maximum degradation <50%)” and the DC50 was > 1000 nM.
On to `Nc1nnc(-c2ccccc2O)cc1N1CCN(CCNC(=O)CCCCCCCCCNc2cccc3c2C(=O)N(C2CCC(=O)NC2=O)C3=O)CC1` (centres unmarked) [Compound 98, N-(2-[4-[3-amino-6-(2-hydroxyphenyl)pyridazin-4-yl]piperazin-1-yl]ethyl)-10-[[2-(2,6-dioxopiperidin-3-yl)-1,3-dioxo-2,3-dihydro-1H-isoindol-4-yl]amino]decanamide], for which, on HiBit-BRG1, the DC50 was > 1000 nM and the Dmax was < 50%. Further, at HiBiT-BRM, the “BRM HiBit Degradation Maximum (%)” value is “C (“C” indicates maximum degradation <50%)” and the DC50 was > 1000 nM.
Consider `Nc1nnc(-c2ccccc2O)cc1OCCc1ccc(C(=O)N2CCC(C3CCN(C(=O)COc4cccc5c4C(=O)N(C4CCC(=O)NC4=O)C5=O)CC3)CC2)cc1` (centres unmarked) [Compound 49, 4-(2-(1′-(4-(2-((3-amino-6-(2-hydroxyphenyl)pyridazin-4-yl)oxy)ethyl)benzoyl)-[4,4′-bipiperidin]-1-yl)-2-oxoethoxy)-2-(2,6-dioxopiperidin-3-yl)isoindoline-1,3-dione], for which, at HiBit-BRG1, the DC50 was > 1000 nM and the Dmax was < 50%. In addition, at HiBiT-BRM, the “BRM HiBit Degradation Maximum (%)” value is “C (“C” indicates maximum degradation <50%)” and the DC50 is > 1000 nM.
Take `CN(Cc1ccc(CCOc2cc(-c3ccccc3O)nnc2N)cc1)C(=O)CCCCOc1cccc2c1C(=O)N(C1CCC(=O)NC1=O)C2=O` (centres unmarked) [Compound 10, N-(4-(2-((3-amino-6-(2-hydroxyphenyl)pyridazin-4-yl)oxy)ethyl)benzyl)-5-((2-(2,6-dioxopiperidin-3-yl)-1,3-dioxoisoindolin-4-yl)oxy)-N-methylpentanamide]: at HiBit-BRG1, the DC50 is > 1000 nM and the Dmax is < 50%. Besides, on HiBiT-BRM, the “BRM HiBit Degradation Maximum (%)” value was “C (“C” indicates maximum degradation <50%)” and the DC50 is > 1000 nM.
Consider `Nc1nnc(-c2ccccc2O)cc1OCCc1ccc(CNCCCOc2cccc3c2C(=O)N(C2CCC(=O)NC2=O)C3=O)cc1` (centres unmarked) [Compound 122, 4-[3-([[4-(2-[[3-amino-6-(2-hydroxyphenyl)pyridazin-4-yl]oxy]ethyl)phenyl]methyl]amino)propoxy]-2-(2,6-dioxopiperidin-3-yl)isoindole-1,3-dione], for which, on HiBit-BRG1, the DC50 was > 1000 nM and the Dmax is > 50%. Moreover, on HiBiT-BRM, the “BRM HiBit Degradation Maximum (%)” value is given as “B (“B” indicates maximum degradation ≥50%)” and the DC50 is > 100 nM.
As for `Nc1nnc(-c2ccccc2O)cc1OCCc1ccc(CN2CC(CCCOc3cccc4c3C(=O)N(C3CCC(=O)NC3=O)C4=O)C2)cc1` (centres unmarked) [Compound 127, 4-[3-(1-[[4-(2-[[3-amino-6-(2-hydroxyphenyl)pyridazin-4-yl]oxy]ethyl)phenyl]methyl]azetidin-3-yl)propoxy]-2-(2,6-dioxopiperidin-3-yl)isoindole-1,3-dione], on HiBit-BRG1, the DC50 is > 1000 nM and the Dmax is < 50%. Besides, at HiBiT-BRM, the “BRM HiBit Degradation Maximum (%)” value is recorded as “C (“C” indicates maximum degradation <50%)” and the DC50 was > 1000 nM.
Take `Cc1ncsc1-c1ccc(CNC(=O)[C@H]2C[C@H](O)CN2C(=O)[C@H](NC(=O)CCCCCNC(=O)CN2CCN(c3cc(-c4ccccc4O)nnc3N)CC2)C(C)(C)C)cc1` (stereo in doubt) [Compound 101, (2R,4S)-1-[(2R)-2-[6-(2-[4-[3-amino-6-(2-hydroxyphenyl)pyridazin-4-yl]piperazin-1-yl]acetamido)hexanamido]-3,3-dimethylbutanoyl]-4-hydroxy-N-[[4-(4-methyl-1,3-thiazol-5-yl)phenyl]methyl]pyrrolidine-2-carboxamide]: at HiBit-BRG1, the DC50 was > 1000 nM and the Dmax was < 50%. At HiBiT-BRM, the “BRM HiBit Degradation Maximum (%)” value was “B (“B” indicates maximum degradation ≥50%)” and the DC50 was > 1000 nM.
As for `Cc1ncsc1-c1ccc(CNC(=O)[C@@H]2C[C@@H](O)CN2C(=O)[C@@H](NC(=O)CCCCCCCCCNCc2ccc(CCNc3cc(-c4ccccc4O)nnc3N)cc2)C(C)(C)C)cc1` [Compound 139, (2S,4R)-1-((S)-2-(10-((4-(2-((3-amino-6-(2-hydroxyphenyl)pyridazin-4-yl)amino)ethyl)benzyl)amino)decanamido)-3,3-dimethylbutanoyl)-4-hydroxy-N-(4-(4-methylthiazol-5-yl)benzyl)pyrrolidine-2-carboxamide], at HiBit-BRG1, the DC50 was > 1000 nM and the Dmax was > 50%. At HiBiT-BRM, the “BRM HiBit Degradation Maximum (%)” value is “A (“A” indicates maximum degradation ≥75%)” and the DC50 is > 100 nM.
